For experiment [1], the target named is T1, human GPR139 (Homo sapiens, UniProt Q6DWJ6).
T1 construct: expressed in transfected cells; host or cells: CHO-TREx (Life Technologies) cells, expression induced with doxycycline
T1 sequence (Q6DWJ6 1-353): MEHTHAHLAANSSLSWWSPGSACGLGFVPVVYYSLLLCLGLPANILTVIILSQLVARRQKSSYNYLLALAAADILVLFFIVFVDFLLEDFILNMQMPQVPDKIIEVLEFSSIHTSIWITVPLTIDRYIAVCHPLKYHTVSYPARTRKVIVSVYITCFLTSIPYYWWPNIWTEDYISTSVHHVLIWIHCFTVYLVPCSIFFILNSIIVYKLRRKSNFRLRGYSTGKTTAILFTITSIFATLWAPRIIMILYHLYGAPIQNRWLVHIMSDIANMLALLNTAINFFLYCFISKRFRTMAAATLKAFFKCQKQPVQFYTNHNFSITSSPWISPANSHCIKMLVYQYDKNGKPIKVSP
Description: Inhibition rate of the amount of IP1 in GPR139-expressed CHO cells (Test Example 1, IP-ONE HTRF assay). It counts as cell-based. The procedure:
Measurement of the Inhibition Rate of the Amount of IP1 in 30 μM of the Compound of Example 2 in GPR139-Expressed CHO Cells
Changes in the amount of IP1 in GPR139-expressed CHO cells were measured in order to evaluate the activity of the compound via GPR139. GPR139 is a Gq-coupled receptor which varies intracellular calcium (Liu C et al., Mol Pharmacol. 2015 November; 88(5):911-25), so the amount of IP1, which is a stable metabolite of the second messenger IP3, changes due to activity regulation of GPR139. GPR139 is considered to be […] when expressed recombinantly in mammal cells, so a compound having a GPR139 receptor inverse agonist action is expected to reduce the amount of IP1 production.
The measurement of IP1 was made using an IP-ONE HTFR assay kit (cis-bio) and CHO-TREx (Life Technologies) cells stably transfected with GPR139. The CHO-TREx cells expressed human GPR139 with a tetracycline-inducing element. […]
The compound was diluted with the stimulation buffer, and 4 μL was added to a 384-well white assay plate (Greiner). […] After the fluorescence strengths of two wavelengths were measured by the HTRF settings of Envision (PerkinElmer), the value of Ratio={(Signal 665 nm)/(Signal 615 nm)}×10000 was calculated.
(In general: Time-resolved FRET reads energy transfer from a long-lived donor to a nearby acceptor.)

In experiment [2] the target is T1, human GPR139. Description: Inhibition rate of the amount of IP1 in GPR139-expressed CHO cells (inverse agonist assay, Test Example 2). It is filed as cell-based. The note with it: relative value, inhibition rate of Example Compound 2 in Test Example 1 defined as 100%; for inhibition at 30 µM: CHO. A digest of the protocol: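 CHO-TREx cells with doxycycline-inducible human GPR139 (2 μg/mL, 17 h) were incubated with compound at 2000 cells/well for 40 min at 37° C. IP1 quantified by HTRF (665/615 nm ratio ×10000); inhibition rate expressed relative to a reference compound defined as […].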

`CCn1cc(Cn2ccn(-c3cc(N4CCO[C@H](C)C4)cc(C(F)(F)F)c3F)c2=O)cn1` [Example 2, 1-[(1-Ethyl-1H-pyrazole-4-yl)methyl]-3-{2-fluoro-5-[(2R)-2-methylmorpholine-4-yl]-3-(trifluoromethyl)phenyl}-1,3-dihydro-2H-imidazole-2-one]: the “GPR139 receptor inverse agonist action (result in words)” value at human GPR139 [1] is “exhibits GPR139 receptor inverse agonist action”. The inhibition at 30 µM at human GPR139 [2] was 100%. In the case of `CCn1cc(Cn2ccn(-c3cc(-c4ccc(F)cc4)cc(C4CC4(F)F)c3F)c2=O)cn1` (centres unmarked) [Example 144, 1-[5-(2,2-difluorocyclopropyl)-4,4′-difluoro[1,1′-biphenyl]-3-yl]-3-[(1-ethyl-1H-pyrazol-4-yl)methyl]-1,3-dihydro-2H-imidazol-2-one], the “Inhibition Rate at 30 μM” value at human GPR139 [2] (30 µM) was determined as 101%. As to `CCn1cc(Cn2c(C)cn(-c3cc(C(F)(F)F)nn3CCC3CCC3)c2=O)cn1` [Example 99, 1-[1-(2-Cyclobutylethyl)-3-(trifluoromethyl)-1H-pyrazole-5-yl]-3-[(I-ethyl-1H-pyrazole-4-yl)methyl]-4-methyl-1,3<dihydro-2H-imidazole-2-one], at human GPR139 [2], the inhibition at 30 µM amounted to 101%. On the same count and under the same terms, the value for `CCn1cc(Cn2cc(C)n(-c3cc(OCC(F)(F)F)cc(N4CCO[C@H](C)C4)c3)c2=O)cn1` [Example 72, 1-[(1-ethyl-1H-pyrazol-4-yl)methyl]-4-methyl-3-{3-[(2R)-2-methylmorpholin-4-yl]-5-(2,2,2-trifluoroethoxy)phenyl}-1,3-dihydro-2H-imidazol-2-one] was 99%; that for `CCn1cc(Cn2cc(C)n(-c3cc(N4CCO[C@@H](C)C4)cc(C(F)(F)F)c3)c2=O)cn1` [Example 28, 1-[(1-ethyl-1H-pyrazol-4-yl)methyl]-4-methyl-3-{3-[(2S)-2-methylmorpholin-4-yl]-5-(trifluoromethyl)phenyl}-1,3-dihydro-2H-imidazol-2-one] was 99%. As to `CCn1cc(Cn2ccn(-c3cc(N4CCC(F)(F)CC4)cc(N4CCC(F)(F)CC4)c3F)c2=O)cn1` [Example 152, 1-[3,5-bis(4,4-difluoropiperidin-1-yl)-2-fluorophenyl]-3-[(1-ethyl-1H-pyrazol-4-yl)methyl]-1,3-dihydro-2H-imidazol-2-one], on human GPR139 [2], the inhibition at 30 µM was determined as 98%. The same measure, in the same setting: the value for `CCn1cc(Cn2cc(C)n(-c3cc(N4CCOC(F)(F)C4)cc(C(F)(F)F)c3)c2=O)cn1` [Example 41, 3-[3-(2,2-difluoromorpholin-4-yl)-5-(trifluoromethyl)phenyl]-1-[(1-ethyl-1H-pyrazol-4-yl)methyl]-4-methyl-1,3-dihydro-2H-imidazol-2-one] was 101%.

For orientation: inhibition means the relative decrease from the control value, in per cent.

Values taken from patent publication US12630534B2 (TAKEDA PHARMACEUTICAL COMPANY LIMITED, priority 2020, dated 2026).
